Laboratory results: patent publication US10000473B2, “Indazole derivatives useful as glucagon receptor antagonists” (Janssen Pharmaceutica NV, priority 2016, dated 2018)
Values joined by “and” are separate entries in the source; they are usually repeats but may differ in a detail not shown here. Equal values may be shown once.

Target: T1, human GCGR (Homo sapiens, UniProt P47871)
T1 construct: expressed in transfected cells; host or cells: HEK293 (hGluc-1HEK), pcDNA3.1, G418 selection
Test: Cellular functional assay, cAMP readout (glucagon-stimulated cAMP, LANCE TR-FRET)
Type: cell-based
Settings: HEK293 cells stably expressing full-length human GCGR; glucagon 100 pM; IC50 converted to Ki; read-out: Inhibition of cAMP Ki

T1 sequence (P47871 26-477): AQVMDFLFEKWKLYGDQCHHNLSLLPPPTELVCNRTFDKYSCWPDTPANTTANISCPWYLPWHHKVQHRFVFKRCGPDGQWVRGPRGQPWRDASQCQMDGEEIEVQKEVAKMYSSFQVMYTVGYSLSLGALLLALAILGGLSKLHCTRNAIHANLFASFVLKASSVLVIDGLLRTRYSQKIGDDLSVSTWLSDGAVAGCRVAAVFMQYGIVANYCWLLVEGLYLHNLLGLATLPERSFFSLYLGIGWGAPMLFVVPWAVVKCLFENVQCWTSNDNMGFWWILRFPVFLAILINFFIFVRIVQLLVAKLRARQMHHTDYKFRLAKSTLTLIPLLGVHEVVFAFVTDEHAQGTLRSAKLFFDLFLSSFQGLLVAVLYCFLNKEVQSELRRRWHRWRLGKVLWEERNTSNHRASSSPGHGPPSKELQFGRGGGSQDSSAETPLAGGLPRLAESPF

Ki | Compound
115 nM | Cc1c(-c2ccc(C(F)(F)F)cc2Cl)ccc2c1cnn2C(CC(C)C)c1ccc(C(=O)NCCC(=O)O)cc1 (stereo not drawn) [Compound #55, 3-(4-(1-(5-(2-Chloro-4-(trifluoromethyl)phenyl)-4-methyl-1H-indazol-1-yl)-3-methylbutyl)benzamido)propanoic acid]
270 nM | O=C(O)CCNC(=O)c1ccc(C(CCC(F)(F)F)n2ncc3cc(-c4ccc(C(F)(F)F)cc4Cl)ccc32)cc1 (stereo not drawn) [Compound #167, 3-[[4-[1-[5-[2-Chloro-4-(trifluoromethyl)phenyl]indazol-1-yl]-4,4,4-trifluorobutyl]benzoyl]amino]propanoic acid]
950 nM | O=C(O)CCNC(=O)c1ccc(C(CCC(F)(F)F)n2ncc3cc(-c4ccc(F)cc4Cl)ccc32)cc1 (stereo not drawn) [Compound #223, 3-(4-(1-(5-(2-Chloro-4-fluorophenyl)-1H-indazol-1-yl)-4,4,4-trifluorobutyl)benzamido)propanoic acid]
260 nM | Cc1ccc2sc(-c3ccc4nn(C(CC(C)C)c5ccc(C(=O)NCCC(=O)O)cc5)cc4c3)cc2c1 (stereo not drawn) [compound 28]
245 nM | CCCCCC(c1ccc(C(=O)NCCC(=O)O)cc1)n1cc2cc(-c3ccc(C(C)(C)C)cc3)ccc2n1 (stereo not drawn) [compound 170]
47 nM and 49 nM | Cc1cc(C(F)(F)F)ccc1-c1ccc2nn(C(CC(C)C)c3ccc(C(=O)NCCC(=O)O)nc3)cc2c1 (stereo not drawn) [Compound #19]
58 nM | CC(C)CC(c1ccc(C(=O)NCCC(=O)O)cc1)n1cc2cc(-c3cc4ccccc4s3)ccc2n1 (stereo not drawn) [compound 120]
62 nM and 130 nM | CC(C)CC(c1ccc(C(=O)NCCC(=O)O)cc1)n1ncc2cc(-c3ccc(C(C)(C)C)cc3)ccc21 (single isomer, unassigned) [Compound #37]
92 nM | CC(C)CC(c1ccc(C(=O)NCCC(=O)O)nc1)n1cc2cc(-c3cc4ccccc4s3)ccc2n1 (stereo not drawn) [compound 96]
350 nM | Cc1cc(Cl)ccc1-c1ccc2c(cnn2C(CC2CCCCC2)c2ccc(C(=O)NCCC(=O)O)nc2)c1 (stereo not drawn) [compound 183]
800 nM | Cc1ccc(-c2ccc3c(cnn3C(CC(C)C)c3ccc(C(=O)NCCC(=O)O)cc3)c2C)c(Cl)c1 (stereo not drawn) [Compound #105, 3-(4-(1-(5-(2-Chloro-4-methylphenyl)-4-methyl-1H-indazol-1-yl)-3-methylbutyl)benzamido)propanoic acid]
136 nM | CCCCCCC(c1ccc(C(=O)NCCC(=O)O)cc1)n1cc2cc(-c3ccc(C(C)(C)C)cc3)ccc2n1 (stereo not drawn) [compound 86]
650 nM | CC(C)CC(c1ccc(C(=O)NCCC(=O)O)nc1)n1ncc2cc(-c3ccc(OC(F)(F)F)cc3)ccc21 (stereo not drawn) [Compound #114, 3-(5-(3-Methyl-1-(5-(4-(trifluoromethoxy)phenyl)-1H-indazol-1-yl)butyl)picolinamido)propanoic acid]
200 nM | O=C(O)CCNC(=O)c1ccc(C(CC2CCCCC2)n2cc3cc(-c4ccc(C(F)(F)F)cc4)ccc3n2)cn1 (stereo not drawn) [compound 240]
410 nM | O=C(O)CCNC(=O)c1ccc(C(CCC(F)(F)F)n2ncc3cc(-c4ccc(Cl)cc4Cl)ccc32)cc1 (stereo not drawn) [Compound #112, 3-[[4-[1-[5-(2,4-Dichlorophenyl)indazol-1-yl]-4,4,4-trifluorobutyl]benzoyl]amino]propanoic acid]
255 nM | CC(C)CC(c1ccc(C(=O)NCCC(=O)O)nc1)n1ncc2cc(-c3ccc(C(F)(F)F)cc3)ccc21 (stereo not drawn) [compound 74]
90 nM and 159 nM | CC(C)CC(c1ccc(C(=O)NCCC(=O)O)cc1)n1ncc2cc(-c3ccc(C(C)(C)C)cc3)ccc21 (stereo not drawn) [Compound #1, 3-(4-(1-(5-(4-(tert-Butyl)phenyl)-1H-indazol-1-yl)-3-methylbutyl)benzamido)propanoic acid]
70 nM | CC(C)CC(c1ccc(C(=O)NCCC(=O)O)nc1)n1cc2cc(-c3ccc(C(F)(F)F)cc3Cl)c(Cl)cc2n1 (stereo not drawn) [Compound #33, 3-[[5-[1-[6-Chloro-5-[2-chloro-4-(trifluoromethyl)phenyl]indazol-2-yl]-3-methyl-butyl]pyridine-2-carbonyl]amino]propanoic acid]
